molecular target: T1, Nav 1.7 (Homo sapiens, UniProt Q15858); assay: Whole-cell voltage clamp electrophysiology, automated patch clamp (marker c in Table of Examples); format: cell-based; details: marker c = Automated patch clamp data; read-out: Nav 1.7 activity
T1 construct: expressed in transfected cells
Summary of the method: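 Human NaV1.7 currents were recorded by whole-cell automated patch clamp, on IonWorks Quattro or another automated platform, typically in perforated-patch configuration. The stimulus protocol was designed to probe block mainly of the inactivated state, with a typical sweep stepping from about −65 mV holding to −10 mV, then −100 mV.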

T1 sequence (Q15858 whole entry): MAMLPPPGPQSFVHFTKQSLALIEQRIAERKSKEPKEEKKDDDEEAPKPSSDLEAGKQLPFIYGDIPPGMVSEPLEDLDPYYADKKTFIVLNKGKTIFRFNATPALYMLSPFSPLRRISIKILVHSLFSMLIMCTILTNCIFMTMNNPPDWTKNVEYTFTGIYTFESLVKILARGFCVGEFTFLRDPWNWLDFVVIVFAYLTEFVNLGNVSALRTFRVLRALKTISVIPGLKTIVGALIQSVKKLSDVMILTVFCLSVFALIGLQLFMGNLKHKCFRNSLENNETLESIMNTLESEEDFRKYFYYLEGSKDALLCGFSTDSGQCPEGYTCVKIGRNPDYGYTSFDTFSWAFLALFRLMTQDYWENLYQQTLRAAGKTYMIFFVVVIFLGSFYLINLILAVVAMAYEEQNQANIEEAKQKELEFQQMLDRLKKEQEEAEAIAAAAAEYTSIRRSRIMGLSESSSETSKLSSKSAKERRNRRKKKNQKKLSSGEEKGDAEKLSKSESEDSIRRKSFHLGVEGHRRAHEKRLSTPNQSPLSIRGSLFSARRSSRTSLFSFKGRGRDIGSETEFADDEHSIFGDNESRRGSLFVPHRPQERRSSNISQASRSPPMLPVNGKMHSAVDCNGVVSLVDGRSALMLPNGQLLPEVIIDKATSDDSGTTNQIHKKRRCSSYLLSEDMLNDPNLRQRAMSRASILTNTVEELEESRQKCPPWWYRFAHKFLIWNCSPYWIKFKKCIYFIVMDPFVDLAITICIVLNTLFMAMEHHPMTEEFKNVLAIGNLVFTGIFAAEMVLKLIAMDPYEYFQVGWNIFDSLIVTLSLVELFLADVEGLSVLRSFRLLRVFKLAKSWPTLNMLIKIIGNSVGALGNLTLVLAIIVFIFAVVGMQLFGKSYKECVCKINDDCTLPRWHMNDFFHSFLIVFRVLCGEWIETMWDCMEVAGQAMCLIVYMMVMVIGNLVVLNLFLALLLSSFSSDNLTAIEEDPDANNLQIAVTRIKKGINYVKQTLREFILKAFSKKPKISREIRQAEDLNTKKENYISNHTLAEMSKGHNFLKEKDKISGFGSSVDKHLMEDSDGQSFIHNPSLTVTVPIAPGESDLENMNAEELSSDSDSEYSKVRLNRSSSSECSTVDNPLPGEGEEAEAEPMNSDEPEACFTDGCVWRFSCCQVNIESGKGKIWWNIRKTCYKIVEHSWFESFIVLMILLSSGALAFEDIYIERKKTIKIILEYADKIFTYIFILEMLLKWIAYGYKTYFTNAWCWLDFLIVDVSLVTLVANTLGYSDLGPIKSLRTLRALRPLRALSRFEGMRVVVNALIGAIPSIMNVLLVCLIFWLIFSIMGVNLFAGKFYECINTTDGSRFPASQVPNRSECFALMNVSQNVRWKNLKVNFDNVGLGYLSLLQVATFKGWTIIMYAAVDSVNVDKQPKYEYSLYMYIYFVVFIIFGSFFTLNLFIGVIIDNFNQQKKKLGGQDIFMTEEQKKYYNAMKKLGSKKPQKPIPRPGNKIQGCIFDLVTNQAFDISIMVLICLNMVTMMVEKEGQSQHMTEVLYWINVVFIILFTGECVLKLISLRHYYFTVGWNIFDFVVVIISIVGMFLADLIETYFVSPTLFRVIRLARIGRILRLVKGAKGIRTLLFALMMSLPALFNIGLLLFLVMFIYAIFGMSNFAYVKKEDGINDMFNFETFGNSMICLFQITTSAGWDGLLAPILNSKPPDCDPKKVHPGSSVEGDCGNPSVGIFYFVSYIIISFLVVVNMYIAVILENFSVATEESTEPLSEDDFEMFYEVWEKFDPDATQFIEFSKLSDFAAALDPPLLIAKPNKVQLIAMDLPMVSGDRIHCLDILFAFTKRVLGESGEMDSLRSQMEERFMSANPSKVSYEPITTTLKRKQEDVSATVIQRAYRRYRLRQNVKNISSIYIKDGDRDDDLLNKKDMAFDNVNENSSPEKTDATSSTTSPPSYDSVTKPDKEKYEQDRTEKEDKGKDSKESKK

| IC50 [µM] | Compound |
| --- | --- |
| 2.77 | CN(c1ccccc1)c1nc(N)nc(-c2noc(-c3ccc(C[S+]([O-])CC(F)(F)F)nc3)n2)n1 (centres unmarked) [Example 317, 2-N-Methyl-2-N-phenyl-6-[5-(6-{[(2,2,2-trifluoroethane)sulfinyl]methyl}pyridin-3-yl)-1,2,4-oxadiazol-3-yl]-1,3,5-triazine-2,4-diamine] |
| 0.711 | CN(c1ccccc1)c1nc(N)nc(-c2noc(N3CCC(SCC(F)(F)F)CC3)n2)n1 [Example 362, 2-N-methyl-2-N-phenyl-6-(5-{4-[(2,2,2-trifluoroethyl)sulfanyl]piperidin-1yl}-1,2,4-oxadiazol-3-yl)-1,3,5-triazine-2,4-diamine] |
| 1.9 | CN(c1ccccc1)c1nc(N)nc(-c2noc(-c3ncccc3NC3CC3)n2)n1 [Example 481, 6-{5-[3-(Cyclopropylamino)pyridin-2-yl]-1,2,4-oxadiazol-3-yl}-2-N-methyl-2-N-phenyl-1,3,5-triazine-2,4-diamine] |
| 1.64 | CN(c1ccccc1)c1nc(N)nc(-c2noc(-c3ccc(Cl)nc3)n2)n1 [Example 418, 6-[5-(6-chloropyridin-3-yl)-1,2,4-oxadiazol-3-yl]-2-N-methyl-2-N-phenyl-1,3,5-triazine-2,4-diamine] |
| 2.92 | CN(c1ccccc1)c1nc(N)nc(-c2noc(-c3ccnnc3)n2)n1 [Example 469, 2-N-methyl-2-N-phenyl-6-[5-(pyridazin-4-yl)-1,2,4-oxadiazol-3-yl]-1,3,5-triazine-2,4-diamine] |
| 0.691 | CC(C)OC[C@@H]1[C@H]2CN(c3nc(-c4nc(N)nc(Nc5ccccc5)n4)no3)C[C@@H]12 [Example 398, 2-N-phenyl-6-{5-[(1R,5S,6S)-6-[(propan-2-yloxy)methyl]-3-azabicyclo[3.1.0]hexan-3-yl]-1,2,4-oxadiazol-3-yl}-1,3,5-triazine-2,4-diamine] |
| > 9.12 | CN(c1ccccc1)c1nc(N)nc(-c2noc(N3CC4CCC(C3)O4)n2)n1 [Example 500, 2-N-methyl-6-(5-{8-oxa-3-azabicyclo[3.2.1]octan-3-yl}-1,2,4-oxadiazol-3-yl)-2-N-phenyl-1,3,5-triazine-2,4-diamine] |
| 0.308 | COC(=O)c1ccc(-c2nc(-c3nc(N)nc(N(C)c4ccccc4)n3)no2)nc1 [Example 285, methyl 6-(3-{4-amino-6-[methyl(phenyl)amino]-1,3,5-triazin-2-yl}-1,2,4-oxadiazol-5-yl)pyridine-3-carboxylate] |
| 0.059 | CN(c1ccccc1)c1nc(N)nc(-c2noc(-c3ccc(C(=O)OC4CCCC4)nc3)n2)n1 [Example 290, cyclopentyl 5-(3-{4-amino-6-[methyl(phenyl)amino]-1,3,5-triazin-2-yl}-1,2,4-oxadiazol-5-yl)pyridine-2-carboxylate] |
| 7.8 | CN(c1ccccc1)c1nc(N)nc(-c2noc(N[C@H]3CC[C@H](OCC(F)(F)F)CC3)n2)n1 [Example 337] |
| 1.04 | CN(c1ccccc1)c1nc(N)nc(-c2noc(C(=O)N3CCC(CSCC(F)(F)F)CC3)n2)n1 [Example 401, 2-N-Methyl-2-N-phenyl-6-{5-[(4-{[(2,2,2-trifluoroethyl)sulfanyl]methyl}piperidin-1-yl)carbonyl]-1,2,4-oxadiazol-3-yl}-1,3,5-triazine-2,4-diamine] |
| 5.87 | COc1cc(-c2nc(-c3nc(N)nc(Nc4ccccc4)n3)no2)ccn1 [Example 239, 6-[5-(2-methoxypyridin-4-yl)-1,2,4-oxadiazol-3-yl]-2-N-phenyl-1,3,5-triazine-2,4-diamine] |
| 2.21 | CN(c1ccccc1)c1nc(N)nc(-c2noc(C3CN(CCC(F)(F)F)C3)n2)n1 [Example 385, 2-N-methyl-2-N-phenyl-6-{5-[1-(3,3,3-trifluoropropyl)azetidin-3-yl]-1,2,4-oxadiazol-3-yl}-1,3,5-triazine-2,4-diamine] |
| 0.464 | CN(c1ccccc1)c1nc(N)nc(-c2noc(-c3ncccc3N3CCOCC3)n2)n1 [Example 490, 2-N-methyl-6-{5-[3-(morpholin-4-yl)pyridin-2-yl]-1,2,4-oxadiazol-3-yl}-2-N-phenyl-1,3,5-triazine-2,4-diamine] |
| 0.328 | CN(c1ccccc1)c1nc(N)nc(-c2noc(-c3ncccc3C(F)(F)F)n2)n1 [Example 348, 2-N-methyl-2-N-phenyl-6-{5-[3-(trifluoromethyl)pyridin-2-yl]-1,2,4-oxadiazol-3-yl}-1,3,5-triazine-2,4-diamine] |
| 0.089 | Nc1nc(Nc2ccc(F)cc2)nc(-c2noc(-c3nccs3)n2)n1 [Example 241] |
| 0.444 | COC(=O)c1ccc(-c2nc(-c3nc(N)nc(N(C)c4ccccc4)n3)no2)cn1 [Example 279, methyl 5-(3-{4-amino-6-[methyl(phenyl)amino]-1,3,5-triazin-2-yl}-1,2,4-oxadiazol-5-yl)pyridine-2-carboxylate] |
| 0.083 | CN(c1ccccc1)c1nc(N)nc(-c2noc(-c3cccnc3C(=O)OC3CCCC3)n2)n1 [Example 380, cyclopentyl 3-(3-{4-amino-6-[methyl(phenyl)amino]-1,3,5-triazin-2-yl}-1,2,4-oxadiazol-5-yl)pyridine-2-carboxylate] |
| 0.893 | CN(c1ccccc1)c1nc(N)nc(-c2noc([C@H]3CCCN3C(=O)OC(C)(C)C)n2)n1 [Example 353, tert-butyl (2R)-2-(3-{4-amino-6-[methyl(phenyl)amino]-1,3,5-triazin-2-yl}-1,2,4-oxadiazol-5-yl)pyrrolidine-1-carboxylate] |
| 6.7 | CC(C)[S+]([O-])C1CCN(c2nc(-c3nc(N)nc(N(C)c4ccccc4)n3)no2)CC1 (centres unmarked) [Example 368, 2-N-methyl-2-N-phenyl-6-{5-[4-(propane-2-sulfinyl)piperidin-1-yl]-1,2,4-oxadiazol-3-yl}-1,3,5-triazine-2,4-diamine] |
| 2.97 | Nc1nc(Nc2ccccc2)nc(-c2noc(C(=O)NC3CCc4ccccc43)n2)n1 (centres unmarked) [Example 244, 3-[4-amino-6-(phenylamino)-1,3,5-triazin-2-yl]-N-(2,3-dihydro-1H-inden-1-yl)-1,2,4-oxadiazole-5-carboxamide] |
| 7.95 | CC1CCN(c2nc(-c3nc(N)nc(Nc4ccccc4)n3)no2)CC1 [Example 243, 6-[5-(4-methylpiperidin-1-yl)-1,2,4-oxadiazol-3-yl]-2-N-phenyl-1,3,5-triazine-2,4-diamine] |
| 0.292 | Nc1nc(Nc2ccccc2)nc(-c2noc(N3C[C@@H]4[C@@H](COC5CCCC5)[C@@H]4C3)n2)n1 [Example 400, 6-{5-[6-[(cyclopentyloxy)methyl]-3-azabicyclo[3.1.0]hexan-3-yl]-1,2,4-oxadiazol-3-yl}-2-N-phenyl-1,3,5-triazine-2,4-diamine] |

same assay, conditions: marker c: Automated patch clamp data; read-out: Nav 1.7 activity

| IC50 [µM] | Compound |
| --- | --- |
| 0.323 | CCOc1ccc(-c2nc(-c3nc(N)nc(N(C)c4ccccc4)n3)no2)cn1 [Example 148, 6-[5-(6-ethoxypyridin-3-yl)-1,2,4-oxadiazol-3-yl]-2-N-methyl-2-N-phenyl-1,3,5-triazine-2,4-diamine] |
| 0.144 | Nc1nc(Nc2cccc(F)c2F)nc(-c2noc(-c3ccc(OCC4CC4)nc3)n2)n1 [Example 139, 6-{5-[6-(cyclopropylmethoxy)pyridin-3-yl]-1,2,4-oxadiazol-3-yl}-2-N-(2,3-difluorophenyl)-1,3,5-triazine-2,4-diamine] |
| 0.703 | CN(c1ccccc1)c1nc(N)nc(-c2noc(-c3cccnc3N)n2)n1 [Example 53, 6-[5-(2-Amino-pyridin-3-yl)-[1,2,4]oxadiazol-3-yl]-N-methyl-N-phenyl-[1,3,5]triazine-2,4-diamine] |
| 0.764 | CCOc1ccccc1-c1nc(-c2nc(N)nc(N(CC)c3ccccc3)n2)no1 [Example 196, 6-[5-(2-ethoxyphenyl)-1,2,4-oxadiazol-3-yl]-2-N-ethyl-2-N-phenyl-1,3,5-triazine-2,4-diamine] |
| 8.5 | CC(C)C(=O)N1CCC(c2nc(-c3nc(N)nc(N(C)c4ccccc4)n3)no2)CC1 [Example 161, 1-[4-(3-{4-Amino-6-[methyl(phenyl)amino]-1,3,5-triazin-2-yl}-1,2,4-oxadiazol-5-yl)piperidin-1-yl]-2-methylpropan-1-one] |
| 5.11 | CN(c1ccccc1)c1nc(N)nc(-c2noc(N3CCCC3)n2)n1 [Example 131, N-Methyl-N-phenyl-6-(5-pyrrolidin-1-yl-[1,2,4]oxadiazol-3-yl)-[1,3,5]triazine-2,4-diamine] |
| 8.98 | CC(=O)N1CCC(c2nc(-c3nc(N)nc(N(C)c4ccccc4)n3)no2)CC1 [Example 162, 1-[4-(3-{4-amino-6-[methyl(phenyl)amino]-1,3,5-triazin-2-yl}-1,2,4-oxadiazol-5-yl)piperidin-1-yl]ethan-1-one] |
| 4.57 | CN(c1ccccc1)c1nc(N)nc(-c2noc(-c3cccc(OCC(F)(F)F)n3)n2)n1 [Example 155, 2-N-methyl-2-N-phenyl-6-{5-[6-(2,2,2-trifluoroethoxy)pyridin-2-yl]-1,2,4-oxadiazol-3-yl}-1,3,5-triazine-2,4-diamine] |
| 0.559 | CN(c1ccccc1)c1nc(N)nc(-c2noc(C3CCN(CCC(F)(F)F)CC3)n2)n1 [Example 163, 2-N-methyl-2-N-phenyl-6-{5-[1-(3,3,3-trifluoropropyl)piperidin-4-yl]-1,2,4-oxadiazol-3-yl}-1,3,5-triazine-2,4-diamine] |
| 8.67 | CN(c1ccccc1)c1nc(N)nc(-c2noc(C3CCN(C(=O)C(F)(F)F)CC3)n2)n1 [Example 159, 1-[4-(3-{4-Amino-6-[methyl(phenyl)amino]-1,3,5-triazin-2-yl}-1,2,4-oxadiazol-5-yl)piperidin-1-yl]-2,2,2-trifluoroethan-1-one] |
| 0.564 | CN(c1ccccc1)c1nc(N)nc(-c2noc(C(=O)N3CC(Oc4ccc(F)cc4)C3)n2)n1 [Example 137] |

same assay, conditions: no platform marker printed in the cell; read-out: Nav 1.7 activity

| IC50 [µM] | Compound |
| --- | --- |
| 1.62 | Nc1nc(-c2noc(-c3ccco3)n2)nc(N2CCCc3ccccc32)n1 [Example 116, 4-(3,4-Dihydroquinolin-1-yl)-6-(5-furan-2-yl-[1,2,4]oxadiazol-3-yl)-[1,3,5]triazine-2-amine] |

Reference: US8895733B2 (Novartis AG, priority 2010, dated 2014)
